# Target: T1, catechol-O-methyltransferase (COMT) (Homo sapiens, UniProt P21964)
# T1 construct: M51A variant) was expressed in HEK 293F cells
# T1 sequence (P21964 52-271 limits assumed): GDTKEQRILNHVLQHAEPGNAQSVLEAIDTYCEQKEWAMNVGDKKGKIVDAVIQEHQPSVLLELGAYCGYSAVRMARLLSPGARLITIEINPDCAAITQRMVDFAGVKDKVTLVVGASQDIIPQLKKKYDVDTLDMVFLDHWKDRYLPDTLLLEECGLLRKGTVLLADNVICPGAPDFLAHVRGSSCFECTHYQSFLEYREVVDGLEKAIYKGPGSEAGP
# Assay: COMT inhibition assay (HTRF, production of S-adenosyl homocysteine)
# Format: biochemical
# Details: recombinant human COMT, HTRF SAH production; MB-COMT or S-COMT not stated for Table 1
# Procedure: The ability of compounds to inhibit the activity of catechol-O-methyltransferase (COMT) was determined by a homogenous time-resolved fluorescent (HTRF) assay (Lina et al, 2012; kit from CisBio, Codolet, France). This assay measures the production of S-adenosyl homocysteine (SAH) from the methyl donor S-adenosyl methionine. Recombinant human membrane bound COMT (MB-COMT; M51A variant) was expressed in HEK 293F cells using 293Fectin (Life Technologies, Gent, Belgium) and membranes prepared. The membranes were re-suspended in buffer (20 mM Tris/HCl pH 7; 10 mM glycerol; 2 mM MgCl2; 10 mM NaCl), aliquoted and stored at −80° C. Recombinant human soluble COMT(S-COMT), Va1158 variant and a hexa-His tag on the N-terminus, was purified using Ni-NTA chromatography, the His tag removed and stored in buffer as above.
# For the human MB-COMT assay, membranes (62 ng/well) were incubated with SAM (20 μM final, CisBio) and dopamine (1.5 μM final; Sigma H8502, Diegem, Belgium) in the presence or absence of varying concentrations (typically 10 concentrations ranging from 10 μM to 0.1 nM) of compound for 40 min at 37° C. in 384-well microtitre plates (10 μl per well final volume). The reaction was terminated by the addition of acylation buffer and the amount of SAH produced determined according to manufacturer's instructions. Specific inhibition as that inhibited by a high concentration of tolcapone (10 μM; synthesised at UCB) and all experiments were validated using a control curve to tolcapone.
# The human S-COMT assay was performed as above except that 0.15 ng enzyme/well was incubated with SAM (20 μM final) and dopamine (100 μM final) for 15 min at 37° C. and SAH production determined.
# HTRF readings were performed using a Perkin Elmer Envision and results expressed as concentration of SAH produced using a standard curve. Results were analysed using non-linear regression to the 4-parameter logistic equation and pIC50 (−log 10 concentration of drug which inhibits enzyme activity/SAH production by 50%) determined.
row,"Activity range (pIC50, COMT inhibition)",SMILES
1,+++ (a pIC50 of above about 7),"COc1cccc(CN(C)S(=O)(=O)c2ccc(O)c3ncccc23)c1 [Example 42, 8-hydroxy-N-[(3-methoxyphenyl)methyl]-N-methyl-quinoline-5-sulfonamide]"
2,+ (a pIC50 of from about 4.5 to 6),"O=S(=O)(c1cc(Cl)c(O)c2ncccc12)N1CCN(Cc2ccc(F)cc2)CC1 [Example 112, 7-chloro-5-[4-[(4-fluorophenyl)methyl]piperazin-1-yl]sulfonyl-quinolin-8-ol]"
3,+++ (a pIC50 of above about 7),"COc1ccc(C2CCCN2S(=O)(=O)c2ccc(O)c3ncccc23)cc1 (stereo not shown) [Example 77, 5-[2-(4-methoxyphenyl)pyrrolidin-1-yl]sulfonylquinolin-8-ol]"
4,+ (a pIC50 of from about 4.5 to 6),"O=S(=O)(c1ccc(O)c2ncccc12)N1CCN(C(c2ccc(F)cc2)c2ccc(F)cc2)CC1 [Example 95, 5-[4-[bis(4-fluorophenyl)methyl]piperazin-1-yl]sulfonylquinolin-8-ol]"
5,+++ (a pIC50 of above about 7),"CC(C)(C)c1ccc(S(=O)(=O)c2ccc(O)c3ncccc23)cc1 [Example 5, 5-(4-tert-butylphenyl)sulfonylquinolin-8-ol]"
6,+++ (a pIC50 of above about 7),"O=S(=O)(c1ccc(O)c2ncccc12)N1CCCC1C1CCCCC1 (stereo not shown) [Example 76, 5-(2-cyclohexylpyrrolidin-1-yl)sulfonylquinolin-8-ol]"
7,+++ (a pIC50 of above about 7),"O=S(=O)(c1cccc(-c2ccc(F)c(Cl)c2)c1)c1ccc(O)c2ncccc12 [Example 24, 5-[3-(3-chloro-4-fluoro-phenyl)phenyl]sulfonylquinolin-8-ol]"
8,+++ (a pIC50 of above about 7),"Cc1cccc(N2CCC(S(=O)(=O)c3ccc(O)c4ncccc34)CC2)c1C [Example 39, 5-[[1-(2,3-dimethylphenyl)-4-piperidyl]sulfonyl]quinolin-8-ol]"
9,+++ (a pIC50 of above about 7),"Cc1ccc(S(=O)(=O)c2ccc(O)c3ncccc23)cc1 [Example 1, 5-tosylquinolin-8-ol]"
10,+++ (a pIC50 of above about 7),"Cc1cnccc1S(=O)(=O)c1ccc(O)c2ncccc12 [Example 27, 5-[(3-methyl-4-pyridyl)sulfonyl]quinolin-8-ol]"
11,+++ (a pIC50 of above about 7),"Cc1cc(F)ccc1S(=O)(=O)c1ccc(O)c2ncccc12 [Example 20, 5-(4-fluoro-2-methyl-phenyl)sulfonylquinolin-8-ol]"
12,+++ (a pIC50 of above about 7),"CN(Cc1ccc(C(F)(F)F)cc1)S(=O)(=O)c1ccc(O)c2ncccc12 [Example 65, N-[(4-(trifluoromethyl)phenyl)methyl]-8-hydroxy-N-methyl-quinoline-5-sulfonamide]"
13,+++ (a pIC50 of above about 7),"CN(CCc1ccccc1)S(=O)(=O)c1ccc(O)c2ncccc12 [Example 48, 8-hydroxy-N-methyl-N-phenethyl-quinoline-5-sulfonamide]"
14,+++ (a pIC50 of above about 7),"O=S(=O)(c1ccc(O)c2ncccc12)C1CCCCC1 [Example 30, 5-cyclohexylsulfonylquinolin-8-ol]"
15,+++ (a pIC50 of above about 7),"O=S(=O)(c1ccc(O)c2ncccc12)N1CCC(Cc2ccccc2)CC1 [Example 84, 5-[(4-benzyl-1-piperidyl)sulfonyl]quinolin-8-ol]"
16,+++ (a pIC50 of above about 7),"CN(Cc1cccc(Cl)c1)S(=O)(=O)c1ccc(O)c2ncccc12 [Example 53, N-[(3-chlorophenyl)methyl]-8-hydroxy-N-methyl-quinoline-5-sulfonamide]"
17,+ (a pIC50 of from about 4.5 to 6),"Cc1cc(S(=O)(=O)N2C[C@@H](F)[C@H](F)C2)c2cccnc2c1O [Example 116, 5-[(3R,4R)-3,4-difluoropyrrolidin-1-yl]sulfonyl-7-methyl-quinolin-8-ol]"
18,+++ (a pIC50 of above about 7),"O=S(=O)(c1ccc(O)c2ncccc12)N1CCCC1c1ccc(F)cc1 (stereo not shown) [Example 74, 5-[2-(4-fluorophenyl)pyrrolidin-1-yl]sulfonylquinolin-8-ol]"
19,+++ (a pIC50 of above about 7),"O=S(=O)(c1cccc(Cl)c1)c1ccc(O)c2ncccc12 [Example 14, 5-(3-chlorophenyl)sulfonylquinolin-8-ol]"

row,SMILES,"Activity range (pIC50, COMT inhibition)"
1,"O=S(=O)(c1ccc(O)c2ncccc12)N1CCCC1c1ccccc1C(F)(F)F (stereo not shown) [Example 81, 5-[2-[2-(trifluoromethyl)phenyl]pyrrolidin-1-yl]sulfonylquinolin-8-ol]",++ (a pIC50 of from about great than 6 to 7)
2,"CC1CN(C(=O)OC(C)(C)C)CCN1S(=O)(=O)c1ccc(O)c2ncccc12 (stereo not shown) [Example 105, tert-butyl 4-[(8-hydroxy-5-quinolyl)sulfonyl]-3-methyl-piperazine-1-carboxylate]",++ (a pIC50 of from about great than 6 to 7)
3,"O=S(=O)(c1cccnc1)c1ccc(O)c2ncccc12 [Example 19, 5-(3-pyridylsulfonyl)quinolin-8-ol]",++ (a pIC50 of from about great than 6 to 7)
4,"O=S(=O)(c1ccncc1)c1ccc(O)c2ncccc12 [Example 17, 5-(4-pyridylsulfonyl)quinolin-8-ol]",++ (a pIC50 of from about great than 6 to 7)
5,"Cc1cc(S(=O)(=O)N(C)[C@H](C)c2ccccc2)c2cccnc2c1O [Example 115, 8-hydroxy-N,7-dimethyl-N-[(1R)-1-phenylethyl]quinoline-5-sulfonamide]",++ (a pIC50 of from about great than 6 to 7)
6,"O=S(=O)(c1ccc(O)c2ncccc12)C1CCN(Cc2cccc(Cl)c2Cl)CC1 [Example 38, 5-[[1-[(2,3-dichlorophenyl)methyl]-4-piperidyl]sulfonyl]quinolin-8-ol]",++ (a pIC50 of from about great than 6 to 7)
7,"Cc1ccc(C)c(N2CCN(S(=O)(=O)c3ccc(O)c4ncccc34)CC2)c1 [Example 93, 5-[4-(2,5-dimethylphenyl)piperazin-1-yl]sulfonylquinolin-8-ol]",++ (a pIC50 of from about great than 6 to 7)
8,"O=S(=O)(c1ccc(O)c2ncccc12)N1CC2CCC(CC2)C1 [Example 91, 5-(3-azabicyclo[3.2.2]nonan-3-ylsulfonyl)quinolin-8-ol]",+++ (a pIC50 of above about 7)
9,"C[C@H]1CCCN1S(=O)(=O)c1cc(Cl)c(O)c2ncccc12 [Example 118, 7-chloro-5-[(2S)-2-methylpyrrolidin-1-yl]sulfonyl-quinolin-8-ol]",++ (a pIC50 of from about great than 6 to 7)
10,"O=S(=O)(c1ccc(O)c2ncccc12)N1CCN(c2ccc(F)cc2)CC1 [Example 96, 5-[4-(4-fluorophenyl)piperazin-1-yl]sulfonylquinolin-8-ol]",++ (a pIC50 of from about great than 6 to 7)
11,"CN(C)CCN(Cc1ccccc1)S(=O)(=O)c1ccc(O)c2ncccc12 [Example 57, N-benzyl-N-(2-dimethylaminoethyl)-8-hydroxy-quinoline-5-sulfonamide]",++ (a pIC50 of from about great than 6 to 7)
12,"Cc1ccc(S(=O)(=O)c2cc(I)c(O)c3ncccc23)cc1 [Example 107, 7-iodo-5-(p-tolylsulfonyl)quinolin-8-ol]",++ (a pIC50 of from about great than 6 to 7)
13,"O=S(=O)(c1ccc(O)c2ncccc12)N1CCN(c2ccccc2)CC1 [Example 41, 5-(4-phenylpiperazin-1-yl)sulfonylquinolin-8-ol]",++ (a pIC50 of from about great than 6 to 7)
14,"CCN(Cc1ccncc1)S(=O)(=O)c1ccc(O)c2ncccc12 [Example 66, N-ethyl-8-hydroxy-N-(4-pyridylmethyl)quinoline-5-sulfonamide]",++ (a pIC50 of from about great than 6 to 7)
15,"Cc1ccc(N(C)S(=O)(=O)c2ccc(O)c3ncccc23)cc1 [Example 46, 8-hydroxy-N-(4-methylphenyl)-N-methylquinoline-5-sulfonamide]",++ (a pIC50 of from about great than 6 to 7)
